pIC50, pKi: −log10 of the molar value. Where a name gives a salt, the structure may show the parent alone. Some results are limits rather than exact numbers.

The target of one data set is Dopamine D1 (Homo sapiens (Human), UniProt P21728). Briefly: Dopamine D1 binding. From the text: (§1) Further, the compounds of the invention may be tested in binding assays and functional activity assays by well known methods for other physiologically important receptors such as, but not limited to, the hERG channel, other serotonin receptors (specifically 5-HT1B, 5-HT1D, receptors, lack of agonist activity at 5-HT2B receptors, 5-HT2C, 5-HT5, 5-HT6, and 5-HT7 receptors), dopaminergic receptors (specifically D1, D2, and D3), GABAA receptors, adrenergic receptors and monoamine transporters.

A further data set addresses Adrenergic alpha1A (Homo sapiens (Human), UniProt P35348). Briefly: Adrenergic alpha1A binding.
From the text: as §1

Another data set has as its target Adrenergic alpha2B (Homo sapiens (Human), UniProt P18089). The data set can be described thus: Adrenergic alpha2B binding.
From the text: as §1

In data set [1] the target is T1, human recombinant H1 receptor (Homo sapiens (Human), UniProt P35367). Briefly: H1 inverse agonism (IP1 accumulation in HEK293/hm H1 cells). It is filed as cell-based. The settings on record: n=2.
For data set [2], the target named is T1, human recombinant H1 receptor. The data set can be described thus: H1 competition binding assay ([3H]-Pyrilamine, SPA). To be noted: dihydrochloride. Here is the method:
[^3H]-Pyrilamine binding experiments are carried out in SPA (scintillation proximity assay) 96-well format. Membranes used in this assay are prepared from HEK-293 cells stably expressing recombinant H1 receptor (human). The incubation is initiated by the addition of a mixture of WGA PVT SPA beads (1 mg/well, Perkin Elmer (MA, USA) RPNQ0001) and 3 μg membranes to assay buffer (67 mM Tris; pH 7.6) containing 3.5 nM [^3H]-Pyrilamine and varying concentrations of the test compound (10 point concentration response curves). Non-specific binding is determined in the presence of 10 μM Triprolidine. Samples are incubated for 4 hr. at room temperature (22° C.) and then read in a Microbeta Trilux.
Curves are evaluated using a 4-parameter logistic nonlinear equation to obtain the concentration of competitor causing 50% inhibition of radioligand binding (IC50). Equilibrium dissociation constants (Ki) are calculated according to the equation Ki=IC50/(1+L/Kd), where L equals the concentration of radioligand used in the experiment and Kd equals the equilibrium dissociation constant of the radioligand for the receptor, determined from standard saturation analysis or homologous competition experiments. Reported values for Ki, where n values are indicated, are shown as geometric mean±the standard error of the mean (SEM), with the number of replicate determinations indicated by n. […]

Data set [3] can be described thus: Plasma clearance in rat (intravenous). Type of data set: in vivo. The settings on record: 1 mg/kg, dihydrochloride. Here is the method: Male Sprague Dawley rats (body weight range 250-320 g) with indwelling femoral arterial cannulae are obtained from Charles River, Wilmington, Mass. 01887, USA. Test compound is administered intravenously in solution (1 mL/kg) in 20% Captisol® in 22.5 mM phosphate buffer, pH 2, at a final drug concentration of 1.0 mg/mL (free base equivalents). Blood samples are obtained using the indwelling cannula over 24 hr. Samples of plasma are obtained by centrifugation and stored frozen (−20° C.), or on dry ice, prior to analysis.
(§2) Frozen plasma samples are thawed to room temperature for bioanalysis of concentrations of test compound. A related internal standard compound in acetonitrile/methanol (1:1, v/v) is added to all samples of plasma (1:1, v/v). The samples are centrifuged to remove precipitated protein prior to analysis. The supernatants are analysed by injection and rapid gradient elution on a Javelin Betasil C18 column (20×2.1 mm cartridge, Mobile phase A: Water/1 M NH4HCO3, 2000:10 v/v, Mobile Phase B: MeOH/1 M NH4HCO3, 2000:10 v/v). The eluted analytes are detected by LC-MS-MS analysis using a Sciex API 4000 triple quadrupole mass spectrometer. Concentrations of compound are determined from standards prepared and analysed under identical conditions. Clearance is calculated using non-compartmental analysis in Watson 7.4, Thermo Fisher Scientific, Inc.

Another data set deals with Adrenergic alpha2C (Homo sapiens (Human), UniProt P18825). The data set can be described thus: Adrenergic alpha2C binding.
From the text: as §1

Data set [4] can be described thus: Plasma clearance in dog (intravenous). Type of data set: in vivo. To be noted: male, Beagle, 1 mg/kg. How it is done: Male Beagle dogs (body weight range 10-12 kg) are obtained from Marshall Bioresources, USA. Test compound is administered intravenously in solution (1 mL/kg) in 20% Captisol® in 22.5 mM phosphate buffer, pH 2, at a final drug concentration of 1.0 mg/mL (free base equivalents). Blood samples are obtained from the jugular vein over 24 hr. Samples of plasma are obtained by centrifugation and stored frozen (−20° C.) prior to analysis.
as §2

For a further data set, the system named is native GABAA receptors. Briefly: GABAA antagonism using native receptors in primary neuronal cultures (FLIPR calcium flux). Type of data set: cell-based, rat. To be noted: against 10 μM GABA. How it is done:
Activity of compounds on native GABAA receptors is evaluated by monitoring calcium fluxes using a 96 well format FLIPR® system (Fluorometric Imaging Plate Reader (FLIPR®, Molecular Devices). Briefly, cortical embryonic neurons are dissociated from E18 rat embryos and plated at optimum density into black-walled, transparent bottom poly-D-lysine coated 96-well FLIPR® plates. After loading the cells with a calcium sensitive dye (Fluo4-AM, Molecular Devices), the cells are bathed in a solution containing low chloride (chloride replaced by gluconate). Under these conditions activation of GABAA receptors causes an efflux of chloride ions (in the direction of the chemical gradient), which results in membrane depolarization and consequently activation of voltage gated calcium channels (VGCCs). Calcium influx through VGCCs is recorded and analysed offline using the FLIPR® system. For a pharmacological validation of the assay, concentration response curves (CRC) are recorded for the standard agonist (GABA) and standard antagonist (Gabazine). […]
The antagonist effects of compounds are quantified using 10-point dose response curves by comparing the peak fluorescent responses to the agonist GABA in the presence and absence of compound. […] Antagonist effects are calculated as a percent of the assay window. […]
(A change in cytosolic calcium serves as a functional read-out for many receptors and channels.)

T1 sequence (P35367 whole entry): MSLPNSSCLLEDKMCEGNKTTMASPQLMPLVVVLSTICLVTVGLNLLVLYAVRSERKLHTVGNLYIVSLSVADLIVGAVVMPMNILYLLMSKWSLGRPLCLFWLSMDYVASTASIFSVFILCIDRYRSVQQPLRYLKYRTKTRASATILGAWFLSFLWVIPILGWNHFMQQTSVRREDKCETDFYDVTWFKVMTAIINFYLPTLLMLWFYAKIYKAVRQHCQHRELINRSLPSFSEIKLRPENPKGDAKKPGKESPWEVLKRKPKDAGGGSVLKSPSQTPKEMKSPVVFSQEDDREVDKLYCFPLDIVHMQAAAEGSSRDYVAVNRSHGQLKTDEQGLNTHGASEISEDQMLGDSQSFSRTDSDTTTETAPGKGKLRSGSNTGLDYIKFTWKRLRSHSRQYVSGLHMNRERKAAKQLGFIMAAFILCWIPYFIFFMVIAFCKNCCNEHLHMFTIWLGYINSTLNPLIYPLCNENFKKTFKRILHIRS
Sequence of Adrenergic alpha1A (P35348 whole entry): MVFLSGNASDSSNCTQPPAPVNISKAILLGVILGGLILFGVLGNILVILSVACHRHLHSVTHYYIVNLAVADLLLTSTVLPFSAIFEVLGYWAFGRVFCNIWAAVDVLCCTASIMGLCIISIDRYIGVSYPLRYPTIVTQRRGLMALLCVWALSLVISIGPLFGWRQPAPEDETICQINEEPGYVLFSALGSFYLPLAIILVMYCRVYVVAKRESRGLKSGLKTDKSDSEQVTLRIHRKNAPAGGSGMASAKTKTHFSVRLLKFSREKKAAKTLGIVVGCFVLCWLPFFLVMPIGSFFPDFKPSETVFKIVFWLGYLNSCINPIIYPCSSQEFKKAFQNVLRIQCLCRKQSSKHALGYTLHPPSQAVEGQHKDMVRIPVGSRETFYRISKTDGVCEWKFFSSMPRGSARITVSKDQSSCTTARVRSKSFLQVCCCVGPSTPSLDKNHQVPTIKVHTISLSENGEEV
Sequence of Adrenergic alpha2C (P18825 whole entry): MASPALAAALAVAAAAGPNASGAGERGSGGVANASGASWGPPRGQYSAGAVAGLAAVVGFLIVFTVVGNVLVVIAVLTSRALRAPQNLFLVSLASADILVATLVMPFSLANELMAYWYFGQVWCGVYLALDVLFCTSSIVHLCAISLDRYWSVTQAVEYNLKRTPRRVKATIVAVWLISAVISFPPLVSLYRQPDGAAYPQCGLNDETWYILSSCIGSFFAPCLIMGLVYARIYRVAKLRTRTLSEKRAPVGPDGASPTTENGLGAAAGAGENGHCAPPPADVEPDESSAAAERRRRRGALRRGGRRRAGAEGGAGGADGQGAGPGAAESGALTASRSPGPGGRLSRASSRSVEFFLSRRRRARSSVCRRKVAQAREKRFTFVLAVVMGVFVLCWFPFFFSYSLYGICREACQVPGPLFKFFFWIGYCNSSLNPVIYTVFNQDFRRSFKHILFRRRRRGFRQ
Sequence of Adrenergic alpha2B (P18089 whole entry): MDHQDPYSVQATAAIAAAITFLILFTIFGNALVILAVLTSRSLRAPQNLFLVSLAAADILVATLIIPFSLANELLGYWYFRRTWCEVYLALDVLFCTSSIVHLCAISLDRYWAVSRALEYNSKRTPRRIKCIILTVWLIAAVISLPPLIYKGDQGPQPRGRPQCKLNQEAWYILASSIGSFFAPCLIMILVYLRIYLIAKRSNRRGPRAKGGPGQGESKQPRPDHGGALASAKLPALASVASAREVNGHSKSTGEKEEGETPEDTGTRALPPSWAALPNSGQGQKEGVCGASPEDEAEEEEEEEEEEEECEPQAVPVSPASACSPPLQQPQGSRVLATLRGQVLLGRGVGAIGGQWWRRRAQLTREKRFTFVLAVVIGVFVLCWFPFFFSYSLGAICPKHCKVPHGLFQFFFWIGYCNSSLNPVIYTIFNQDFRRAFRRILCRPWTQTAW
Sequence of Dopamine D1 (P21728 whole entry): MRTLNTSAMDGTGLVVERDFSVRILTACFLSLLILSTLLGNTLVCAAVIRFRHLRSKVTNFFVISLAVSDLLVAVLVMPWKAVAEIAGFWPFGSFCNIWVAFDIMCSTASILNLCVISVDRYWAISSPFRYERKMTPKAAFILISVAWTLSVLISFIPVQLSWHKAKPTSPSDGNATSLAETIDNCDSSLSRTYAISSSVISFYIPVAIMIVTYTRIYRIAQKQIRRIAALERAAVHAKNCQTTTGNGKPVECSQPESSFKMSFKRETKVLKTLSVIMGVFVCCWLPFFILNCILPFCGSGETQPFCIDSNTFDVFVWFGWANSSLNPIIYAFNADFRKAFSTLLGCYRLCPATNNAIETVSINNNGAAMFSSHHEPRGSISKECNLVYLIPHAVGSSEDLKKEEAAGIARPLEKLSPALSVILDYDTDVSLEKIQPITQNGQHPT

For orientation: pKi means the Ki on a negative log10 scale, so that one unit is a factor of ten. As a reminder, the pIC50 is −log10 of the IC50, conventionally taken in molar units. For `Cc1ccc2c(c1)Oc1sc(Cl)cc1C(N1CCN(CC(C)(C)C(=O)O)CC1)=N2` [Example 3, 3-[4-(2-chloro-8-methyl-thieno[2,3-b][1,5]benzoxazepin-4-yl)piperazin-1-yl]-2,2-dimethyl-propanoic acid dihydrochloride], the pKi on Dopamine D1 was 6.23; on Adrenergic alpha1A, less than 4.99; at Adrenergic alpha2B, less than 5.24; in [2], 7.23; at Adrenergic alpha2C, less than 5.37. Besides, the “suppression of constitutive activity (IP1), relative to Tripelennamine” value in data set [1] (at 1 μM) stood at 105%; in data set [1] (at 10 μM), 85%. In addition, the clearance in [3] was 14.5 (+/−1.4, n = 3) mL/min./Kg; in data set [4], 3.2 mL/min/kg. Also, the negative-log IC50 (pIC50) with native GABAA receptors is less than 4.00.

These data come from US9481688B2, “(Thieno[2,3-b][1,5]benzoxazepin-4-yl)piperazin-1-yl compounds as dual activity H1 inverse agonists/5-HT2A antagonists” (Eli Lilly and Company, priority 2011, dated 2016).
